The test system of this experiment is Gram negative fermenting bacteria; Enterobacter gergoviae and Klebsiella species. The experiment is described as follows: Liquid broth MIC assay of individual chemicals. The class given is cell-based. To be noted: tryptic soy broth, 30° C., 24 hours, OD600, MIC = concentration at which <25% growth vs positive growth control.
Procedure: Liquid broth assays (MIC and checkerboard) were conducted to identify the minimum concentration(s) of individual and tertiary antimicrobial chemicals. A modified methodology to ISO 20776-1:2006 was utilized for the screening as follows. Stock solutions of antimicrobial chemicals and tryptic soy broth were inoculated with 1-5×10^6 microorganism mixture of Gram negative fermenting bacteria; Enterobacter gergoviae and Klebsiella species.
Samples were incubated at 30° C. for 24 hours, after which optical densities at OD600 nm were measured.
In the case of `CC(=O)OCc1ccccc1` [Benzyl Acetate], the MIC was 2 wt %.

`CC(C)=CCCC(C)CCO` (stereo not shown) [Citroneol] showed an MIC of 2 wt %.

On to `CCCC(=O)OCC` [Ethyl Butyrate], for which the MIC amounted to 2 wt %.

The compound `CC12CCC(CC1)C(C)(C)O2` [Eucalyptol] had an MIC of 2 wt %.

Compound `C=CCc1ccc(O)c(OC)c1` [Eugenol] showed an MIC of 0.063 wt %.

For `CCCCCCCC1CCC(=O)O1` (stereo not shown) [Gamma Undecalactone], the MIC turned out to be 2 wt %.

In the case of `CC(C)=CCC/C(C)=C/CO` [Geraniol Natural, Geraniol], the MIC is reported as 2 wt %.

On to `CC(=O)OC/C=C(\C)CCC=C(C)C` [Geranyl Acetate], for which the MIC came out at 2 wt %.

For `CCCCCCOC(C)=O` [Hexyl acetate], the MIC was found to be 2 wt %.

The compound `C=C(C)[C@H]1CC=C(C)CC1` [Limonene] yielded an MIC of 2 wt %.

The compound `CC1CCC(C(C)C)C(O)C1` (stereo not shown) [Menthol] gave an MIC of 2 wt %.

In turn, `Cc1cc(CC(C)CC(C)(C)C)n(O)c(=O)c1.NCCO` (stereo not shown) [Octopirox, piroctone olamine, reference compound] registered an MIC of 0.063 wt %.

In turn, `OCCc1ccccc1` [Phenethyl Alcohol] showed an MIC of 0.5 wt %.

On to `O=C([O-])c1ccccc1.[Na+]` [Sodium benzoate], for which the MIC is given as 0.5 wt %.

As for `CC1=CC[C@@H](C(C)(C)O)CC1` [Terponeol], the MIC was found to be 0.125 wt %.

Consider `C=C(CC(=O)O)C(=O)O` [ltaconic Acid], for which the MIC was 0.5 wt %.

The values are drawn from US20220226219A1, “ANTIMICROBIAL COMPOSITIONS” (Conopco, Inc., d/b/a UNILEVER, priority 2019, published 2022).
